Our source for the solubility values is US4181710A, “Rumen-stable pellets” (Eastman Kodak Company, priority 1978, dated 1980).

SMILES strings stand for the structures. In brackets after ≈: the same amount, converted by molar mass.

The nature of this data set: Solubility of amino acids in water. In kind it is physicochemical. The following applies: at 25° C.

As a reminder, the solubility is the concentration that dissolves in the medium under given conditions. A high value points to a readily soluble substance. With `CC(N)C(=O)O` (racemic) [DL - Alanine], the concentration in solution (solubility) was 167 mg/mL (≈ 1870 mM). As for `CSCCC(N)C(=O)O` (racemic) [DL - Methionine], the figure is 40 mg/mL (≈ 268 mM).
